Reference: patent US8669250B2, “Derivatives of aryl-{4-halogeno-4-[aminomethyl]-piperidin-1-yl}-methanone, their method of preparation and their use as medicinal products” (Pierre Fabre Medicament, priority 2009, dated 2014)
Where a name gives a salt, the structure may show the parent alone.

What was measured:
5-HT1A receptor = biological target: T1, 5-HT1A receptor (Rattus norvegicus, UniProt P19327); assay: Affinity for 5-HT1A receptors, shift of (3H)8-OH-DPAT in rat cerebral cortex; format: binding; settings: mean of at least 3 experiments, read-out: 5-HT1A affinity (pKi) (converted)
T1 construct: the cerebral cortex is sampled and homogenized in 20 volumes of buffer; from tissue; host or cells: rat cerebral cortex homogenate (membranes)
T1 sequence (P19327 1-422): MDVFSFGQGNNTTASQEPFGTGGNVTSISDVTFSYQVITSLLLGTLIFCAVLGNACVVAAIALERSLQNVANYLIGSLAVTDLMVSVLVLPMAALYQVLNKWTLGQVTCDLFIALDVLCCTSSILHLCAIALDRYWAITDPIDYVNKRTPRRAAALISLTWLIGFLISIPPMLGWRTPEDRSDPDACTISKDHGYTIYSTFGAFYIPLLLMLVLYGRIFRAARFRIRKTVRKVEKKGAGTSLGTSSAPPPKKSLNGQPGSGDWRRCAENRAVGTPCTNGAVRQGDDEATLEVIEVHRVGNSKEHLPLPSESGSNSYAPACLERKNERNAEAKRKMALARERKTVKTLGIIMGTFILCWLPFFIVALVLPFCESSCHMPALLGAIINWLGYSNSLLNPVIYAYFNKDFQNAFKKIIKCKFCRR
Experimental: (§1) The affinity of the compounds of the invention for the rat 5-HT1A receptor was measured conventionally from competitive experiments with a radiolabelled 5-HT1A agonist. […] This test is widely used since it is predictive of antidepressant action in man. Analgesic activity was determined after intra-peritoneal administration to rats, both with a physiological pain model and a pathological pain model. By physiological pain, the inventors designate pain whose origin is a lesion and/or organic ill-function such as pain caused by excessive nociceptive stimuli.
The in vitro affinity of the compounds of the invention for the 5-HT1A receptors was determined by measuring the shift of (^3H)8-OH-DPAT (agonist of 5HT1A receptors labelled with tritium, TRK 850; 160-240 Ci/mmole).
The study on binding with the 5-HT1A receptor was conducted as described in Naunyn-Schmiedeberg's Arch. Pharmaco. 1991, 343, 106. For these experiments, rat cerebral cortices were used. After unfreezing the brain in Tris-HCl buffer 50 mmol, pH=7.40 at 25° C., the cerebral cortex is sampled and homogenized in 20 volumes of buffer held at 4° C. The homogenate is centrifuged at 39000 g for 10 min, the centrifuge residue is suspended in the same volume of buffer and again centrifuged. After further suspension under the same conditions, the homogenate is incubated for 10 min at 37° C. then again centrifuged. The final residue is suspended in cold reaction buffer Tris-HCl 50 mmol, pH=7.40 at 25° C. containing […] of pargyline, 4 mmol of CaCl2 and 0.10% ascorbic acid. The final concentration of the tissue in the incubation medium is 10 mg/tube.
The reaction tubes contain 0.10 mL of (^3H)8-OH-DPAT (final […]), 0.10 mL of product to be tested 6-7 concentrations and 0.80 mL of tissue. Non-specific binding is defined using […] of 5-HT. The reaction tubes are incubated at 23° C. for 30 min then their content is rapidly vacuum filtered through Whatman GF/B filters, the tubes are rinsed with 2×5 mL of Tris-HCl buffer 50 mmol, pH=7.4 at 25° C. Radioactivity is collected on the filter and analyzed by liquid scintillation by adding 4 mL of scintillating liquid (Emulsifier Safe, Packard). All experiments were performed in triplicate.
The inhibition constants (Ki) of the products of the invention are estimated from shift experiments using the non-linear regression programme RADLIG version 4 by EBDA (Equilibrium Binding Data Analysis Biosoft, Cambridge, UK, Mc Pherson, 1985). The dissociation constant of the radioactive ligand used for calculations is […] for (^3H)8-OH-DPAT. The values of pKi (−log Ki) are given in the form mean±SEM of at least 3 experiments.

[1] = system: rats, forced swimming immobility; assay: Forced swimming test (antidepressant activity); format: in vivo; settings: rat, oral, even at a dose of 40 mg/Kg
Experimental: as §1
The rats (Male Sprague Dawley rats (ICO: OFA SD [IOPS], Iffa Credo, France), are placed in a cylinder (45 cm high and 20 cm in diameter) filled with water at 25° C.±0.5 up to a height of 17 cm. This depth allows rats to swim or float without their tail touching the bottom of the cylinder.
24 h before the test day, the rats are placed in the cylinder for 15 min, a lapse of time after which they no longer attempt to escape and remain immobile. On the test day the animals are replaced in the cylinder and the duration of animal immobility is measured by direct observation followed by verification of an audiovisual recording for 5 min. The products of the invention are administered by oral route 60 min before the test. A rat is considered to be immobile if it allows itself to float and only makes small movements to remain on the surface. Two rats are observed at the same time.
(§2) Quantification of the effect of the compounds of the invention on the forced swimming tests and on the formol test is conducted by one-factor variance analysis between groups (ANOVA analysis) followed by a multiple comparison test (Dunnett's test) versus control animals. The ED50 value is calculated using Litchfield and Wilcoxon analysis from the percentage of responding animals.

[2] = system: rats, formol-induced pain; assay: Formol test (analgesic activity, physiological pain); format: in vivo; settings: rat, i.p.
Description: (§3) The physiological pain model chosen by the inventors to determine the analgesic activity of the compounds of the invention uses excess nociceptive stimuli (injection of formol) to cause a painful sensation in animal (Eur. J. Pharmacol. 2001, 421, 109). For the so-called pathological pain model in animal, the inventors chose to use pain induced by the injection of a cytotoxic agent such as oxaliplatine (Eur. J. Cancer 2007, 2658).
The rats (Male Sprague Dawley rats (ICO: OFA SD [IOPS], Iffa Credo, France) are placed in plexiglass observation boxes above an angled mirror so as to facilitate observation of the hind paws. After thirty minutes of habituation, the animals are given an injection of formol diluted to 2.5% on the plantar surface of the right hind paw. The injection of formol produces behavioural responses which occur in two phases:
an acute phase, from 0 to 5 min after injection of the formol, corresponding to stimulation of receptors specialized in the transmission of pain messages to the spinal cord.
a late phase which occurs 20 to 30 min after the injection. This phase corresponds to stimulation of receptors by inflammatory mediators and/or to hyper-excitability of the dorsal horn induced during the first phase. This late phase therefore involves central sensitization.
For the study of the compounds of the invention we selected two expressions of painful behaviour and chose two periods of observation which correspond to the two pain phases (i.e. 0-5 min and 22.5-27.5 min). During these two 5-min periods the animals are observed every 30 seconds and are given scores for the following behaviours: paw licking or not of the injected paw, and lifting or non-lifting of the injected paw. Ten observations give a maximum score of 10 for each parameter for each of the 2 phases. The products of the invention are administered via intraperitoneal route 15 min before the injection of formol.
as §2
For this test, the animals are observed every 30 seconds during two periods of 5 min. The following behaviours are noted: paw licking or not of the injected paw, and paw lifting or not of the injected paw. Ten observations give a maximum score of 10 for each parameter for each of the 2 phases, measuring either paw lifting or paw licking. This test was also performed by comparison with administration of the vehicle (veh) alone.

[3] = system: rats, oxaliplatine-induced allodynia; assay: Oxaliplatine test, von Frey (analgesic activity, pathological pain); format: in vivo; settings: rat, i.p., even at a dose of 2.5 mg/kg
Description: as §3
The rats (Male Sprague Dawley rats (ICO: OFA SD [IOPS], Iffa Credo, France) are tested a first time on the Friday to determine their mechanical sensitivity threshold (von Frey test). They are then given an intra-peritoneal injection (i.p.) of oxaliplatine (anticancer treatment causing neuropathic pain in patients) at a dose of 8 mg/kg. This dose in rat induces neuropathy which translates as mechanical hypersensitivity (allodynia) which develops 3 days after the injection with a peak on day five. For the study of the compounds of the invention, the animals are re-tested on day five, 15 min after administration of the compound via intra-peritoneal route.
The pressure force is then measured (in g) at which withdrawal of the paw of the animals is observed.

Molecule `NC(=O)c1cccc2c1OC(CNCC1(F)CCN(C(=O)c3ccc(F)c(Cl)c3)CC1)CN2` (stereo not drawn) [Compound 1h, (3-Chloro-4-fluoro-phenyl)-{4-fluoro-4-[(3,4-dihydro-2H-8-carbamoyl-1,4-benzoxazine-2-methanamino)-methyl]-piperidin-1-yl}-methanone] has a Ki (5-HT1A receptor) of 0.741 nM.
`N#Cc1cccc2c1OC(CNCC1(F)CCN(C(=O)c3ccc(F)c(Cl)c3)CC1)CN2` (stereo not drawn) [Compound 1f, (3-Chloro-4-fluoro-phenyl)-{4-fluoro-4-[(3,4-dihydro-2H-8-cyano-1,4-benzoxazine-2-methanamino)-methyl]-piperidin-1-yl}-methanone] gave a Ki (5-HT1A receptor) of 0.646 nM.
Molecule `O=C(c1ccc(F)c(Cl)c1)N1CCC(F)(CNCC2CNc3ccccc3O2)CC1` (stereo not drawn) (as salt: hydrochloride) [Compound 1a3, (3-Chloro-4-fluoro-phenyl)-{4-fluoro-4-[(3,4-dihydro-2H-1,4-benzoxazine-2-methanamino)-methyl]-piperidin-1-yl}-methanone] has a melting point of 175 °C.
`O=C(c1ccc(F)c(Cl)c1)N1CCC(F)(CNCC2CNc3cccc(F)c3O2)CC1` (stereo not drawn) (as salt: fumarate) [Compound 1b, (3-Chloro-4-fluoro-phenyl)-{4-fluoro-4-[(3,4-dihydro-2H-8-fluoro-1,4-benzoxazine-2-methanamino)-methyl]-piperidin-1-yl}-methanone] showed a melting point of 100 °C.
With `O=C(c1ccc(F)c(Cl)c1)N1CCC(F)(CNCC2CNc3cccc(Cl)c3O2)CC1` (stereo not drawn) [Compound 1d, (3-Chloro-4-fluoro-phenyl)-{4-fluoro-4-[(3,4-dihydro-2H-8-chloro-1,4-benzoxazine-2-methanamino)-methyl]-piperidin-1-yl}-methanone] the Ki (5-HT1A receptor) was 2.29 nM.
With `CN1CC(CNCC2(F)CCN(C(=O)c3ccc(F)c(Cl)c3)CC2)Oc2ccccc21` (stereo not drawn) [Compound 1g, (3-Chloro-4-fluoro-phenyl)-{4-fluoro-4-[(3,4-dihydro-2H-4-methyl-1,4-benzoxazine-2-methanamino)-methyl]-piperidin-1-yl}-methanone] the Ki (5-HT1A receptor) was 0.794 nM.
Work on `Cc1cccc2c1OC(CNCC1(F)CCN(C(=O)c3ccc(F)c(Cl)c3)CC1)CN2` (stereo not drawn) [Compound 1c, (3-Chloro-4-fluoro-phenyl)-{4-fluoro-4-[(3,4-dihydro-2H-8-methyl-1,4-benzoxazine-2-methanamino)-methyl]-piperidin-1-yl}-methanone] yielded a Ki (5-HT1A receptor) of 1.23 nM.
With `O=C(c1ccc(F)c(Cl)c1)N1CCC(F)(CNCC2CNc3ccccc3O2)CC1` (single isomer, unassigned; (-)) (as salt: fumarate) [Compound 1a1, (−)-(3-Chloro-4-fluoro-phenyl)-{4-fluoro-4-[(3,4-dihydro-2H-1,4-benzoxazine-2-methanamino)-methyl]-pipéridin-1-yl}-methanone] the melting point was 185 °C.
For `O=C(c1ccc(F)c(Cl)c1)N1CCC(F)(CNCC2CNc3cccc(F)c3O2)CC1` (stereo not drawn) [Compound 1b, (3-Chloro-4-fluoro-phenyl)-{4-fluoro-4-[(3,4-dihydro-2H-8-fluoro-1,4-benzoxazine-2-methanamino)-methyl]-piperidin-1-yl}-methanone], the Ki (5-HT1A receptor) was 0.631 nM.
In the case of `O=C1CC2(CCCC2)CC(=O)N1CCCCN1CCN(c2ncccn2)CC1` [buspirone, reference compound], the “effect on animal immobility” value [1] is reported as “no effect on animal immobility”, the “dose on and after which paw lifting is affected” value ([2]; acute phase and late phase) is reported as no less than 2.5 mg/kg and the “dose on and after which paw licking is inhibited” value ([2]; late phase) is reported as no less than 2.5 mg/kg. The “analgesia, in words” value [3] was “does not produce any significant analgesia”.
`CN1CC(CNCC2(F)CCN(C(=O)c3ccc(F)c(Cl)c3)CC2)Oc2ccccc21` (stereo not drawn) (as salt: fumarate) [Compound 1g, (3-Chloro-4-fluoro-phenyl)-{4-fluoro-4-[(3,4-dihydro-2H-4-methyl-1,4-benzoxazine-2-methanamino)-methyl]-piperidin-1-yl}-methanone] showed a melting point of 125 °C.
For `COc1cccc2c1OC(CNCC1(F)CCN(C(=O)c3ccc(F)c(Cl)c3)CC1)CN2` (stereo not drawn) [Compound 1e, (3-Chloro-4-fluoro-phenyl)-{4-fluoro-4-[(3,4-dihydro-2H-8-methoxy-1,4-benzoxazine-2-methanamino)-methyl]-piperidin-1-yl}-methanone], the Ki (5-HT1A receptor) was 1.51 nM.
